This is an account of results in patent US5162361A, “Method of treating diseases associated with elevated levels of interleukin 1” (priority 1990, dated 1992).

Structures are written as SMILES. Entries after “also recorded” stand apart in the source; their conditions may differ. Bounds are passed on as bounds.

The test system of one series is Female B6C3F1 mice. Briefly: Endotoxemia: hypothermia and survival after LPS. Format: in vivo. As for the experimental part:
Female B6C3F1 mice weighing approximately 24 g were dosed with pentamidine (15 mg/kg.; i.v.) at both 24 hours and 1 hour prior to LPS administration (50 mg/kg; i.p.). Temperature response indices (TRI) were determined for the period between time zero and +12 hours in groups of 5 mice. […] Animals used for body temperature measurements were treated identically and on the same day as those animals for which survival was measured, although the survival of these animals is not included in the Table below. Survival data shown in Table 3 is following 24 hours of observation.

Series [1] deals with tumor necrosis factor. The experiment in a line: Tumor necrosis factor secretion by human macrophages. The format is cell-based. The settings on record: Macrophage, 10^-5 M, read-out: Suppression of tumor necrosis factor secretion. An excerpt:
(§1) It has also been observed that pentamidine (10^-5 M) blocks the secretion of tumor necrosis factor in rat macrophages (42 units/ml - pentamidine vs. 82 units/ml - control), as well as tumor necrosis factor and IL-6 in human macrophages, where at a concentration of 10^-5 M pentamidine, tumor necrosis factor and IL-6 secretion are suppressed >50%. These additional cytokines are also very influential mediators in inflammatory diseases.

The next series has as its system human IL-1. Briefly: IL-1 secretion by human alveolar macrophages (enzyme linked immunosorbant assay). Format: cell-based. The settings on record: 10^-5 M. As to the method:
Dose response studies were performed to determine the molar concentration at which pentamidine reduced viability in normal rat macrophages. […] This blockage was shown using an enzyme linked immunosorbant assay with specific antibody to IL-1β.
Four normal healthy human volunteers were lavaged and their pulmonary macrophages cultured in vitro in the presence of 10^-5 M pentamidine and the IL-1 inducer, lipopolysaccharide. Following 24 hours of incubation, the supernatant fluid was collected and stored at -20° C. for IL-1 determination using an enzyme linked immunosorbant assay with specific antibody to human IL-1.

Series [2] concerns tumor necrosis factor. Briefly: Tumor necrosis factor secretion by rat macrophages. The format is cell-based. The settings on record: pentamidine 10^-5 M, rat macrophages (control 82 units/ml). As for the experimental part:
as §1
In vitro studies were performed by taking alveolar macrophages from normal healthy rat lungs and culturing them in the presence of an imidazoline with the inducer lipopolysaccharide for 24 hours. The standard bioassay for IL-1 was performed (see above).

The subject of the next series is IL-1α. The experiment in a line: Western blot analysis of cell associated IL-1α. Conditions: 10 μM pentamidine, LPS, 24 h, FIG. 3. The format is cell-based, rat. As to the method: To determine the effect of pentamidine on cellular stores of IL-1, intracellular levels of IL-1 were quantitated by incubating cells with and without 10 μM pentamidine and LPS for 24 hours. At the end of this incubation period, the cells were washed, lysed and the total cellular protein was collected for Western blot analysis. […] This is in agreement with the generally accepted existence of a precursor form of IL-1 with a molecular weight in the range of 31-33 kD (J. Giri et al., J. Immunol. 134, 343 (1985)).
Cells (4×10^6 cells) were oultured with pentamidine (10μM) or dexamethasone (1μM) in media with 10% fetal calf serum (FCS) in the presence or absence of LPS (1 μg/ml) for 24 hours. The cells were washed twice in HBSS and then scraped in homogenizing buffer (HBSS containing 0.1 mM EGTA, 1 mM pmsf, 10 μg/ml leupeptin, 1 KIU/ml aprotinin, pH 7.4). The cell suspension was left on ice for 10 minutes at which time the swollen cells were disrupted by sonication. The nuclei and undisrupted cells were pelleted by centrifugation at 800 rpm for 10 minutes and were discarded. The supernatant was centrifugated at 39,000 rpm for 1 hour at 4° C. After centrifugation, the supernatants containing cytosolic components of the cell was carefully removed and was used as the cytosol fraction. […] Molecular weight references were determined by running one lane with pre-stained molecular weight standards.
On the technique in general: Immunoblotting shows a protein as a band on a membrane.

The next series has as its system IL-6. The experiment in a line: IL-6 secretion by human macrophages. The format is cell-based. Conditions: Macrophage, 10^-5 M, read-out: Suppression of IL-6 secretion.
Source text: as §1

As to `N=C(N)c1ccc(OCCCCCOc2ccc(C(=N)N)cc2)cc1` [Pentamidine, 1,5-bis(4-amidinophenoxy)pentane], the “Temperature response index (TRI)” value was -8.3 Δ°C in the series on Female B6C3F1 mice (15 mg/kg i.v. 24 h and 1 h prior to LPS 50 mg/kg i.p. (LPS alone -13.3), P < 0.01); -2.4 Δ°C in the series with Female B6C3F1 mice (15 mg/kg i.v. at 24 h and 1 h, no LPS (vehicle -1.3)). For the same compound, the Survival in the series on Female B6C3F1 mice (15 mg/kg i.v. + LPS, 24 hours of observation (LPS alone 0/10), P < 0.01) was 10/10; in the series on Female B6C3F1 mice (15 mg/kg i.v., no LPS, 24 hours of observation (vehicle 10/10)), 9/9. In addition, the “Mean rectal temperature at 12 hours (Tr12hr)” value was determined as 29.0 ± 2.2 °C with Female B6C3F1 mice (15 mg/kg i.v. + LPS, ± SE (LPS alone 25.3 ± 0.5), P < 0.01) and 35.0 ± 2.9 °C in the series with Female B6C3F1 mice (15 mg/kg i.v., no LPS, ± SE (vehicle 36.9 ± 1.4)). Also, the “Mean rectal temperature at time zero (Tr0)” value was 37.3 ± 0.4 °C in the series with Female B6C3F1 mice (15 mg/kg i.v. + LPS, ± SE (LPS alone 38.6 ± 0.4)) and 37.4 ± 0.6 °C in the series on Female B6C3F1 mice (15 mg/kg i.v., no LPS, ± SE (vehicle 38.2 ± 0.1)). Moreover, the inhibition at 10 µM with tumor necrosis factor [1] is above 50%; in the series on human IL-1 (Macrophage, 24 h, cumulative over four human subjects, vs. untreated macrophages of same individual, read-out: Suppression in the amount of IL-1 secreted), 62.1%; in the series with IL-6, above 50%. In the series with human IL-1 (ELISA with specific antibody to IL-1β, result in words), the “IL-1 (IL-1β) secretion by human macrophages” value is given as “blocks IL-1 secretion; also recorded: decreased IL-1β release by human macrophages”. Also, the “Tumor necrosis factor secretion” value in the series with tumor necrosis factor [2] was found to be 42 units/ml. For the same compound, the “Cell associated IL-1α (Western blot)” value with IL-1α is reported as “allows proper translation of the protein; also recorded: antiserum to murine IL-1α bound to a protein that migrated to approximately 31 kD”.
